From patent publication US6683027B2, “Herbicidal mixtures” (BASF Aktienegesellschaft, priority 2000, dated 2004)

How the values were obtained:
Type in all cases: in vivo
[1] = test system: Lolium perenne; test: greenhouse pre-emergence trial, percent damage vs untreated control 21 days after treatment; conditions: LOLPE
[2] = test system: Papaver rhoeas; test: as above; conditions: PAPRH; for flufenacet alone (% control): Example 2
[3] = test system: Stellaria media; test: as above; conditions: STEME
[4] = test system: Veronica persica; test: as above; conditions: VERPE; for flufenacet alone (% control): Example 2; for IPU alone (% control): Example 1A
[5] = test system: Galium aparine; test: as above; conditions: GALAP; for flufenacet alone (% control): Example 2
[6] = test system: Matricaria inodora; test: as above; conditions: MATIN, Example 2
[7] = test system: Alopecurus myosuroides; test: as above; conditions: 60 g/ha, ALOMY, Example 1A
[8] = test system: Lamium purpureum; test: as above; conditions: LAMPU, Example 1A
[9] = test system: Setaria viridis; test: as above; conditions: SETVI, Example 1A
[10] = test system: Alopecurus myosuroides; test: greenhouse post-emergence trial, percent damage vs untreated control 21 days after treatment; conditions: ALOMY, Example 1B
Experimental: (§1) The trials are carried out under greenhouse conditions in pre- and post-emergence applications. The plant seeds are sown in pots containing a loamy sand soil (0.5 l). The herbicides are applied as single treatments, or in a combination comprising a compound of formula I and compound selected from group (2) as defined above, before or after emergence of weeds and crop. The herbicidal performance is assessed as percent damage in comparison to the untreated control plants. The assessment is done 21 days after the treatment. Wheat and barley are treated at the 3-4 leaf stage, the broad-leaf weeds at the 2-4 leaf stage and annual grasses at the 2-3 leaf stage.

[11] = test system: Apera spica-venti; test: as above; conditions: 60 g/ha, APESV, Example 1B
Experimental: as §1

[12] = test system: Lamium purpureum; test: as above; conditions: 60 g/ha, LAMPU, Example 1B
Experimental: as §1

[13] = test system: Lolium perenne; test: as above; conditions: 60 g/ha, LOLPE, Example 1B
Experimental: as §1

[14] = test system: Papaver rhoeas; test: as above; conditions: PAPRH, Example 1B
Experimental: as §1

[15] = test system: Setaria viridis; test: as above; conditions: SETVI, Example 1B
Experimental: as §1

[16] = test system: Stellaria media; test: as above; conditions: 60 g/ha, STEME, Example 1B
Experimental: as §1

[17] = test system: Veronica persica; test: as above; conditions: VERPE, Example 1B
Experimental: as §1

## CC(C)N(C(=O)COc1nnc(C(F)(F)F)s1)c1ccc(F)cc1 [flufenacet]
[1]; 15 g/ha, Example 2
  flufenacet alone (% control): 30%
[2]; 15 g/ha
  flufenacet alone (% control): 0%
[2]; 30 g/ha
  flufenacet alone (% control): 0%
[2]; 60 g/ha
  flufenacet alone (% control): 0%
[3]; 30 g/ha, Example 2
  flufenacet alone (% control): 0%
[4]; 15 g/ha
  flufenacet alone (% control): 0%
[4]; 30 g/ha
  flufenacet alone (% control): 10%
[4]; 60 g/ha
  flufenacet alone (% control): 10%
[5]; 15 g/ha
  flufenacet alone (% control): 0%
[5]; 30 g/ha
  flufenacet alone (% control): 10%
[5]; 60 g/ha
  flufenacet alone (% control): 55%
[6]; 15 g/ha
  flufenacet alone (% control): 0%
[6]; 30 g/ha
  flufenacet alone (% control): 0%

## CC(C)c1ccc(NC(=O)N(C)C)cc1 [IPU]
[7]
  IPU alone (% control): 43%
[8]; 60 g/ha
  IPU alone (% control): 0%
[8]; 120 g/ha
  IPU alone (% control): 15%
[8]; 240 g/ha
  IPU alone (% control): 70%
[1]; 60 g/ha, Example 1A
  IPU alone (% control): 40%
[2]; 60 g/ha, Example 1A
  IPU alone (% control): 0%
[9]; 60 g/ha
  IPU alone (% control): 0%
[9]; 120 g/ha
  IPU alone (% control): 20%
[9]; 240 g/ha
  IPU alone (% control): 65%
[3]; 60 g/ha, Example 1A
  IPU alone (% control): 15%
[4]; 60 g/ha
  IPU alone (% control): 0%
[4]; 120 g/ha
  IPU alone (% control): 0%
[4]; 240 g/ha
  IPU alone (% control): 0%
[5]; 120 g/ha, Example 1A
  IPU alone (% control): 0%
[10]; 60 g/ha
  IPU alone (% control): 15%
[10]; 120 g/ha
  IPU alone (% control): 38%
[11]
  IPU alone (% control): 50%
[12]
  IPU alone (% control): 0%
[13]
  IPU alone (% control): 38%
[14]; 60 g/ha
  IPU alone (% control): 0%
[14]; 120 g/ha
  IPU alone (% control): 25%
[14]; 240 g/ha
  IPU alone (% control): 48%
[15]; 60 g/ha
  IPU alone (% control): 15%
[15]; 120 g/ha
  IPU alone (% control): 40%
[16]
  IPU alone (% control): 25%
[17]; 60 g/ha
  IPU alone (% control): 15%
[17]; 240 g/ha
  IPU alone (% control): 5%
